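Method: 48-hour compound exposure of cells in 96-well plates, five concentrations, linear interpolation of endpoints. Abbreviation: GI50, concentration required for 50% inhibition of growth. At the TGI there is no net growth.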
Legend:
Assay in all cases: growth of human tumour cells (NCI), 48 h
[1] = test system: UO-31 renal
[2] = test system: SN12C renal
[3] = test system: UACC-257 melanoma
[4] = test system: SNB-19 CNS
[5] = test system: A549 NSCLC
[6] = test system: 786-0 renal
[7] = test system: HCT-116 colon
[8] = test system: TK-10 renal
[9] = test system: U251 CNS
[10] = test system: T-47D breast
[11] = test system: SF-539 CNS

`Nc1nc(SCCc2ccccc2)c2[nH]cnc2n1` showed a TGI [1] of over 100 µM, a TGI [2] of over 100 µM and a TGI [3] of 67.5 µM. For the same compound, the TGI [4] was over 100 µM, the TGI [5] was over 100 µM and the TGI [6] was over 100 µM. The TGI [7] was over 100 µM, the TGI [8] was 67.9 µM and the TGI [9] was over 100 µM. The TGI [10] was over 100 µM.

Compound `Cc1n[nH]c(=O)n1/N=C/c1ccc(Cl)cc1` has a TGI [1] of over 100 µM, a TGI [2] of over 100 µM and a TGI [3] of over 100 µM. The TGI [4] was over 100 µM, the TGI [5] was over 100 µM and the TGI [6] was over 100 µM. The TGI [7] was over 100 µM, the TGI [11] was over 100 µM and the TGI [10] was over 100 µM.

In the case of `CCOC(=O)c1csc(NC(=O)CN2CCOCC2)n1`, the TGI [1] is reported as over 100 µM, the TGI [3] is reported as over 100 µM and the TGI [4] is reported as over 100 µM. It also gave a TGI [5] of over 100 µM, a TGI [8] of over 100 µM and a TGI [11] of over 100 µM. It also gave a TGI [9] of over 100 µM and a TGI [10] of over 100 µM.

For `CC1(C)OC(=O)N(c2ccccc2)C12C=Cc1cc([N+](=O)[O-])cc([N+](=O)[O-])c1O2` (centres undefined), the TGI [1] was over 100 µM, the TGI [2] was over 100 µM and the TGI [3] was over 100 µM. For the same compound, the TGI [4] was over 100 µM, the TGI [5] was over 100 µM and the TGI [6] was over 100 µM. The TGI [7] was over 100 µM, the TGI [8] was over 100 µM and the TGI [9] was over 100 µM. It also gave a TGI [10] of over 100 µM.

`O=c1[nH]c(Nc2cccc(CC(F)(F)F)c2)nc2nc[nH]c12` showed a TGI [1] of over 100 µM, a TGI [2] of over 100 µM and a TGI [3] of over 100 µM. For the same compound, the TGI [4] was over 100 µM, the TGI [5] was over 100 µM and the TGI [6] was over 100 µM. The TGI [7] was over 100 µM, the TGI [8] was over 100 µM and the TGI [11] was over 100 µM. The TGI [9] was over 100 µM and the TGI [10] was over 100 µM.

For `CC(=O)NC(Cc1ccc(O)cc1)C(=O)O` (centres undefined), the TGI [1] was over 100 µM, the TGI [2] was over 100 µM and the TGI [3] was over 100 µM. The TGI [4] was over 100 µM, the TGI [5] was over 100 µM and the TGI [6] was over 100 µM. The TGI [7] was over 100 µM, the TGI [8] was over 100 µM and the TGI [9] was over 100 µM. The TGI [10] was over 100 µM.

Work on `Cc1ccc(-c2n[nH]c(=O)n2N2C(=O)c3ccccc3C2=O)cc1` yielded a TGI [1] of over 100 µM, a TGI [2] of over 100 µM and a TGI [3] of over 100 µM. For the same compound, the TGI [4] was over 100 µM, the TGI [5] was over 100 µM and the TGI [6] was over 100 µM. For the same compound, the TGI [7] was over 100 µM, the TGI [8] was over 100 µM and the TGI [11] was over 100 µM. For the same compound, the TGI [9] was over 100 µM and the TGI [10] was over 100 µM.

For `COc1cc2c(c(OC)c1OC)C(=O)[C@@H]1[C@H]2N1C(N)=O`, the TGI [1] was over 100 µM, the TGI [2] was over 100 µM and the TGI [3] was over 100 µM. It also gave a TGI [4] of over 100 µM, a TGI [5] of over 100 µM and a TGI [6] of over 100 µM. It also gave a TGI [7] of over 100 µM, a TGI [8] of over 100 µM and a TGI [11] of over 100 µM. For the same compound, the TGI [9] was over 100 µM and the TGI [10] was over 100 µM.

Compound `Cc1ccc(N=NC(=Nc2ccccc2)c2ccc(N(CCC#N)CCC#N)cc2)cc1` has a TGI [1] of over 100 µM, a TGI [2] of over 100 µM and a TGI [3] of 54 µM. The TGI [4] was over 100 µM, the TGI [5] was 80.7 µM and the TGI [6] was over 100 µM. It also gave a TGI [7] of over 100 µM, a TGI [8] of 74.9 µM and a TGI [11] of over 100 µM. For the same compound, the TGI [9] was 71.2 µM and the TGI [10] was over 100 µM.

With `CC(C)(C)OC(=O)N[C@H]1CCN(C2CCCCC2)C1=O` the TGI [1] was over 100 µM, the TGI [2] was over 100 µM and the TGI [4] was over 100 µM. It also gave a TGI [5] of over 100 µM, a TGI [6] of over 100 µM and a TGI [7] of over 100 µM. For the same compound, the TGI [8] was over 100 µM, the TGI [11] was over 100 µM and the TGI [9] was over 100 µM.

`O=[N+]([O-])c1ccc2c(c1)/C(=N/N=C1c3ccccc3Cc3ccccc31)c1cc([N+](=O)[O-])cc([N+](=O)[O-])c1-2` showed a TGI [1] of 4.41 µM, a TGI [2] of 3.23 µM and a TGI [3] of 4.38 µM. It also gave a TGI [4] of 23.3 µM, a TGI [5] of 25.3 µM and a TGI [6] of 3.41 µM. The TGI [7] was 3.08 µM, the TGI [8] was 11.5 µM and the TGI [11] was 7.21 µM. For the same compound, the TGI [9] was 10.7 µM and the TGI [10] was 3.49 µM.

Work on `O=C1/C(=C/c2ccccc2)N=C2Sc3c(nc[nH]c3=O)N12` yielded a TGI [1] of over 100 µM, a TGI [2] of over 100 µM and a TGI [3] of over 100 µM. For the same compound, the TGI [4] was over 100 µM, the TGI [5] was over 100 µM and the TGI [6] was over 100 µM. For the same compound, the TGI [7] was over 100 µM, the TGI [8] was over 100 µM and the TGI [11] was over 100 µM. It also gave a TGI [9] of over 100 µM and a TGI [10] of over 100 µM.

`CCCCC#C[I+]c1ccccc1` was tested, and the TGI [1] was 30 µM, the TGI [2] was 28.3 µM and the TGI [3] was 30.8 µM. It also gave a TGI [4] of 30.9 µM, a TGI [5] of 33.8 µM and a TGI [6] of 28.8 µM. The TGI [7] was 30 µM, the TGI [8] was 28.6 µM and the TGI [11] was 38.8 µM. It also gave a TGI [9] of 29.9 µM.

In the case of `C=C(C)C(=O)OC1C/C(CO)=C\C(O)C/C(C)=C/C2OC(=O)C(=C)C21` (centres undefined), the TGI [1] is reported as over 100 µM, the TGI [2] is reported as 38.8 µM and the TGI [4] is reported as over 100 µM. It also gave a TGI [5] of over 100 µM, a TGI [6] of 37.1 µM and a TGI [7] of 37.1 µM. It also gave a TGI [8] of 41.2 µM, a TGI [11] of 46.3 µM and a TGI [9] of over 100 µM.

Compound `O=C(CCN1CCCCC1)C(=Cc1ccccc1)C(=O)CCN1CCCCC1` has a TGI [1] of over 100 µM, a GI50 [2] of 3.52 µM and a TGI [2] of over 100 µM. For the same compound, the GI50 [3] was 87.4 µM, the TGI [3] was over 100 µM and the TGI [4] was over 100 µM. It also gave a TGI [5] of over 100 µM, a TGI [7] of over 100 µM and a TGI [11] of over 100 µM. The GI50 [9] was 3.04 µM and the TGI [9] was over 100 µM.

In the case of `COc1cc(C2c3cc4c(cc3OC(N3CCOCC3)C2C)OCO4)ccc1O` (centres undefined), the TGI [1] is reported as over 92.8 µM, the TGI [2] is reported as over 100 µM and the TGI [3] is reported as over 100 µM. It also gave a TGI [4] of over 100 µM, a TGI [5] of over 100 µM and a TGI [6] of over 100 µM. It also gave a TGI [7] of 50.4 µM, a TGI [8] of over 100 µM and a TGI [11] of 35.6 µM. For the same compound, the TGI [9] was over 100 µM and the TGI [10] was over 78.2 µM.

Work on `CCCCCCCCCCCCCCNC(=O)CCC(NC(=O)c1ccc(N(C)Cc2cnc3nc(N)nc(N)c3n2)cc1)C(=O)NCCCCCCCCCCCCCC` (centres undefined) yielded a TGI [1] of 53.6 µM, a TGI [2] of 33.8 µM and a TGI [3] of 35.4 µM. For the same compound, the TGI [4] was over 61.4 µM, the TGI [5] was over 36.3 µM and the TGI [6] was 52.1 µM. It also gave a TGI [7] of over 100 µM, a TGI [8] of over 86.2 µM and a TGI [11] of 16.3 µM. For the same compound, the TGI [9] was 32.6 µM and the TGI [10] was 38.5 µM.

Work on `Cc1c(O)c(O)cc[n+]1C1OC(CO)C(O)C1O` (centres undefined) yielded a TGI [1] of over 100 µM, a TGI [2] of over 100 µM and a TGI [3] of over 100 µM. For the same compound, the TGI [4] was over 100 µM, the TGI [5] was over 100 µM and the TGI [6] was over 100 µM. It also gave a TGI [7] of over 100 µM, a TGI [8] of over 100 µM and a TGI [9] of over 100 µM.

Compound `O=c1c2cc([N+](=O)[O-])cnc2sn1-c1ccc([N+](=O)[O-])cc1` has a TGI [1] of over 100 µM, a TGI [2] of over 100 µM and a TGI [3] of over 100 µM. It also gave a TGI [4] of over 100 µM, a TGI [5] of over 100 µM and a TGI [6] of over 100 µM. It also gave a TGI [7] of 83.9 µM, a TGI [8] of over 100 µM and a TGI [11] of over 100 µM. It also gave a TGI [9] of over 100 µM and a TGI [10] of 83.6 µM.

With `CC(C)(C)OC(=O)NCCCCC1NC(=O)[C@@H]2Cc3c([nH]c4ccccc34)C(C3CCCCC3)N2C1=O` (some centres undefined) the TGI [1] was over 100 µM, the TGI [2] was over 100 µM and the TGI [3] was over 100 µM. For the same compound, the TGI [4] was over 100 µM, the TGI [5] was over 100 µM and the TGI [6] was over 100 µM. For the same compound, the TGI [7] was over 100 µM, the TGI [8] was over 100 µM and the TGI [9] was over 100 µM. For the same compound, the TGI [10] was over 100 µM.

`O=c1ccc(-c2ccccc2)n[nH]1` gave a TGI [1] of over 100 µM, a TGI [2] of over 100 µM and a TGI [3] of over 100 µM. It also gave a TGI [4] of over 100 µM, a TGI [5] of over 100 µM and a TGI [6] of over 100 µM. For the same compound, the TGI [7] was over 100 µM, the TGI [8] was over 100 µM and the TGI [9] was over 100 µM. It also gave a TGI [10] of over 100 µM.

— PubChem BioAssay (NCI)
